# “Also recorded” adds a separate entry of the source.
# Columns and labels:
# KK^Ay mice [1] = test: Body weight, food and water intake in KK^Ay mice (Example 3); type: in vivo; conditions: vs model group
# From the text: (§1) 60 male KK^Ay mice (12 weeks of age, License NO. SCXK (BJ) 2009-0015, Beijing Huafukang Biology Technology Co. Ltd.) and 10 normal male C57BL/6 mice (12 weeks of age, License NO. SCXK (BJ) 2009-0015, Beijing Huafukang Biology Technology Co. Ltd.) were adaptively bred for one week, and then used in the following experiment.
# The animals were housed individually in wood-chip-bedded plastic cages. Germ-free and high-fat diets (Beijing Huafukang Biology Technology Co. Ltd.) were used to feed the KK^Ay mice. All the animals had free access to food and water.
# (§2) 60 KK^Ay mice were adaptively bred for 1 week, and then randomly assigned into 6 groups: Model group, Compound (1) group, Compound (2) group, Compound (3) group, Compound (4) group, and metformin group, 10 mice per group. 10 normal C57BL/6 mice were used for the control group. KK^Ay mice were in a high-fat diet, and the control normal mice were in a normal control diet. The control and model groups were hypodermically injected with sterile water, the 6 medicated groups mice were subcutaneously injected with […] Wacao saponins, (Compounds (1), (2), (3) and (4)) respectively, and the positive group was administered metformin by gavage. All mice were administrated at 9 am for 2 weeks and the administration volume is 10 ml/kg BW.
# (§3) The body weight, food and water intake of each mouse was measured and recorded weekly throughout the course of the experiment. At the end of the experiment, collected the blood and separated serum, fasting blood glucose, insulin levels and insulin sensitivity index (ISI) were measured or calculated in each group. Liver, skeletal muscles of mice in each group were taken and weighed for detecting glycogen levels of the hepatic and muscles after mice being killed.
# (§4) Compound (1), (2), (3) and (4) were respectively dissolved into sterile water, and sterilized with filtration for Sc. to the medication groups. The metformin was dissolved into sterile water for lg. to the positive control group. Control and model groups animals were injected with sterile water (10 ml/kg BW), Sc. All the animals were treated daily at 9 am for 2 weeks (14 days).
# Measurement of food and water intake: 24 hours' food and water intake were measured by gravimetry once a week. It should be paid attention to recycling leakage of small forage into the feed box to ensure the accuracy of food intake.
# Determination of body weight: The body weight of mice was measured and recorded once a week.
# Results are shown as means±SD. Statistical analysis data were analyzed by using SPSS 10.0 software. Data were evaluated with analysis of variance.
# KK^Ay mice [2] = test: Glycemia in KK^Ay mice during treatment and after withdrawal (Example 3); type: in vivo
# From the text: as §1, §2, §4
# (§5) Blood detection: Blood glucose was measured weekly. Overnight fasting glycemia level was measured with One Touch ULTRA Glucometer for the tail blood test. At the end of the experiment, blood serum was collected for measuring levels of fasting blood glucose and insulin, and the insulin sensitivity index (ISI) was calculated. At the same time, hepatic tissues and skeletal muscles of mice were taken out to determine levels of hepatic and muscle glycogen by detection kits.
# Termination of the experiment After administrating mice for 2 weeks (14 days), the experiment was terminated.
# This experiment is to observe the anti-hyperglycemia effects of Wacao saponins on KK^Ay mice during and after the period of drug treatment, respectively.
# KK^Ay mice [3] = test: Hepatic and muscle glycogen in KK^Ay mice (Example 3); type: in vivo; conditions: 2.0 mg/kg Sc
# From the text: as §2, §3, §4, §5
# normal ICR mice = test: Glycemia in normal ICR mice (Example 4); type: in vivo; conditions: 2.0 mg/kg Sc, vs control group
# From the text: 40 male ICR mice (20-22g, License NO. SCXK (BJ) 2011-0004, Beijing SPF Experimental Animal Technology Co. Ltd.) were adaptively bred for one week, and then used in the following experiment.
# Animals were housed individually in wood-chip-bedded plastic cages and fed the standard laboratory chow. All the animals had ad libitum access to food and water.
# 40 ICR mice were adaptively bred for 1 week, and then randomly assigned into 4 groups: Model, Compound (1), Compound (2) and metformin group, 10 mice per group. All the animals were fed with normal food. Mice in the control group were hypodermically injected with sterile water. The treated groups were subcutaneously injected with Compounds (1) and (2), respectively. And the positive group was administrated metformin by gavage. All the animals were administrated at 9 am for 2 weeks, and the dose volume is 10 ml/kg BW.
# Compound (1) and (2) were respectively dissolved into sterile water, and sterilized with filtration for Sc. The metformin was dissolved into sterile water for lg. to the positive control group. Mice in the control group were injected with sterile water (10 ml/kg BW), Sc. All the animals were treated at 9 am for 2 weeks (14 days).
# Blood detection: Blood glucose was measured weekly. Overnight fasting glycemia was measured by One Touch ULTRA Glucometer (LifeScan Johnson and Johnson, USA) for the tail blood test.
# End of the experiment: After mice being administrated for 2 weeks (14 days), the experiment was terminated.
# T2DM rats = test: Glycosylated serum protein (GSP) and liver and muscle glycogen in T2DM rats (Example 5); type: in vivo, SD rats; conditions: 4.0 mg/kg Sc vs glucobay 20 mg/kg lg
# From the text: 50 SD rats were adaptively bred for 1 week, and then randomly assigned into 5 groups: The control group, model group, Compound (1) group, Compound (2) group and glucobay group (the positive group), 10 rats per group. All the animals were in a standard laboratory diet. Control and model group animals were hypodermically injected with sterile water, test compound treatment groups were subcutaneously injected with the Compounds (1) and (2), and the positive group was administrated glucobay solution by gavage. All the animals were administrated at 9 am for 2 weeks, and the dose volume is 10 ml/kg BW.
# The Compounds (1) and (2) were dissolved into sterile water, and sterilized with filtration, Sc. Glucobay was dissolved into sterile water, lg. Animals in the control and model groups were injected with sterile water (10 ml/kg BW), Sc. All the animals were treated at 9 am for 2 weeks (14 days).
# All rats except the control group were administrated intragastrically with the high-fat emulsion (10 ml/kg) and weighed the body weight weekly. After weeks of administration, rats were intraperitoneally injected with streptozotocin (STZ, dissolved in citric acid-citrate sodium solution, pH 4.2, freshly prepared and used instantly, and store away from light) (30mg/kg). 4 days later, blood glucose level in rats was measured by tail blood test. […]
smiles,measurement,setting,value
"CC(=O)OC1C(OC(=O)/C=C/c2ccc(C)cc2)C(C)OC(OC(=O)[C@]23CCC(C)(C)C[C@H]2C2C=C[C@@H]4[C@@]5(C)CC[C@H](OC6OC(C(=O)O)C(O)C(OC7OCC(O)C(O)C7O)C6OC6OC(CO)C(O)C(O)C6O)[C@@](C)(C=O)[C@@H]5CC[C@@]4(C)[C@]2(C)C[C@H]3O)C1OC1OC(C)C(O)C(O)C1O (stereo partly shown) [Compound (1), sinocrassuloside VI]",body weight growth,"KK^Ay mice [1]; 2.0 mg/kg BW Sc, 2 weeks",best effect of resistance on body weight growth
same,food intake,"KK^Ay mice [1]; after 1 week, compounds 2.0 mg/kg Sc, metformin 500 mg/kg lg",decreased obviously
same,overall anti-diabetic effects,"KK^Ay mice [2]; KK^Ay mice, 2.0 mg/kg Sc, 2 weeks, comparison among compounds",best anti-diabetic effects
same,duration of hypoglycemic effect compared with metformin,"KK^Ay mice [2]; KK^Ay mice, after stopping medication",lasts longer than that of metformin
same,descending rates of blood glucose,"KK^Ay mice [2]; T2DM mice, 2 mg/kg, two weeks after subcutaneous injection",70%
same,enhancement of glycogen storage,"KK^Ay mice [3]; 2 weeks, comparison among compounds and with metformin, 2 mg/kg",strongest activity of the function; also recorded: almost comparable to metformin
same,muscle glycogen level,"KK^Ay mice [3]; after 2 weeks, vs model group",stronger efficacy in raising levels muscle glycogen
same,glycemia level,normal ICR mice; after 1 week,"no significant difference was found except the Compound (1) group (p<0.05, vs. control group)"
same,glycemia level,normal ICR mice; after 2 weeks,decreased much obviously
same,effect on glycogen levels and GSP levels compared with glucobay,T2DM rats,better effect on up-regulating of glycogen levels and down-regulating of GSP levels; also recorded: superior to that of glucobay; also recorded: stronger than glucobay

# Source: patent US20160324884A1, “TREATMENT OF DIABETES WITH PENTACYCLIC TRITERPENOID SAPONIN COMPOUNDS FROM SZECHUAN MELANDIUM ROOT” (priority 2013, published 2016)
